Assay results taken from patent US20240335452A1, “COMPOSITIONS AND METHODS OF COMBINATION THERAPY FOR TARGETING LYMPHOMA” (Cullgen (Shanghai), Inc., priority 2021, published 2024).
“Also recorded” adds a separate entry of the source.

Columns and labels:
Type in all cases: cell-based, human
OCI-LY7 cells = experiment: Cell viability assay (CellTiter-Glo) in OCI-LY7 cells; details: for IC50: Homo sapiens, 120 h, OCI-LY7 cells (EZH2-wild type), in the presence of 1 μM EPZ-6438, 5 days; for cell viability of the combination versus the compound alone (FIG. 2B, 2D): OCI-LY7, combination with any of CC-122, CC-220, or CC-92480 (so in the source); for cell viability, response of the cells to the single agent: OCI-LY7, single agent, 5 days
Procedure: (§1) Experiments were performed in cultured human cells to assess the efficacy of combined EZH2 inhibitor and immunomodulatory drug (e.g., an IMiD) treatment using an EZH2-mutant DLBCL cell line, SU-DHL-10, and an EZH2-wild type line, OCI-LY7. Cells were purchased from Nanjing Cobioer Biotechnology. SU-DHL-10 and OCI-LY7 cells were cultured at 37° C. with 5% CO2 in RPMI 1640 Medium supplemented with 10% fetal bovine serum. Cells were authenticated using the short tandem repeat (STR) assays. Mycoplasma test results were negative.
(§2) The cultured cells were seeded at a density of 5000 cells per well in 96-well assay plates and treated with test compounds at 10 μM followed by a 11-point 3-fold serial dilution or an 8-point 10-fold serial dilution. Cell viability was determined after 5 days, using the CellTiter-Glo assay kit (Promega) according to the manufacturer's instructions. The dose-response curves were determined and IC50 values were calculated using the GraphPad Prism software following a nonlinear regression (least squares fit) method. Each data point in the figure represents the mean values of at least two technical replicates ± standard deviation.
(§3) Cells were treated with EZH2 inhibitors in the presence of IMiDs at concentrations sufficient to induce degradation of IKZF1 and IKZF3 but not enough to kill cells. CC-122 and CC-220 were tested at a concentration of 1 μM; CC-92480 and CFT7455 were tested at a concentration of 1 nM; and CC-99282 was tested at a concentration of 10 nM.

SU-DHL-10 cells [1] = experiment: Cell viability assay (CellTiter-Glo) in SU-DHL-10 cells; details: for IC50: Homo sapiens, SU-DHL10, 120 h, SU-DHL-10 cells (EZH2-mutant DLBCL), in the presence of 1 μM EPZ-6438, 5 days; for cell viability of the combination versus the compound alone (FIG. 2A, 2C): SU-DHL-10, combination with any of CC-122, CC-220, or CC-92480 (so in the source); for cell viability, response of the cells to the single agent: SU-DHL-10, single agent
Procedure: as §1, §2, §3

SU-DHL-10 cells [2] = experiment: as above
[3] = OCI-LY7, in the presence of 1 μM C24, 5 days
[4] = OCI-LY7, in the presence of 1 μM CPI-1205, 5 days
[5] = OCI-LY7, in the presence of 1 μM EPZ-6438, 5 days
[6] = OCI-LY7, in the presence of 1 μM GSK126, 5 days
[7] = SU-DHL-10, in the presence of 1 μM CPI-1205, 5 days
[8] = SU-DHL-10, in the presence of 1 μM EPZ-6438, 5 days
[9] = SU-DHL-10, in the presence of 1 μM GSK126, 5 days
[10] = SU-DHL-10, in the presence of C24 (1 μM with CC-122, 2 μM with CC-220), 5 days
[11] = OCI-LY7, in the presence of 1 nM CC-92480, 5 days
[12] = OCI-LY7, in the presence of 1 μM CC-122, 5 days
[13] = OCI-LY7, in the presence of 1 μM CC-220, 5 days
[14] = SU-DHL-10, in the presence of 1 nM CC-92480, 5 days
[15] = SU-DHL-10, in the presence of 1 μM CC-122, 5 days
[16] = SU-DHL-10, in the presence of 1 μM CC-220, 5 days
[17] = OCI-LY7, in the presence of 1 nM CFT7455, 5 days
[18] = OCI-LY7, in the presence of 10 nM CC-99282, 5 days
[19] = SU-DHL-10, in the presence of 1 nM CFT7455, 5 days
[20] = SU-DHL-10, in the presence of 10 nM CC-99282, 5 days

## Cc1nc2cccc(N)c2c(=O)n1C1CCC(=O)NC1=O (stereo not shown) [CC-122, avadomide]
OCI-LY7 cells
  IC50: 0.38 µM
  cell viability of the combination versus the compound alone (FIG. 2B, 2D): lowered cell viability more than treatment with CC-122 alone
  cell viability, response of the cells to the single agent: modestly responsive
OCI-LY7 cells; [3]
  cell viability (sensitivity of the cells to the compound in combination): highly sensitive
OCI-LY7 cells; [4]
  cell viability (sensitivity of the cells to the compound in combination): highly sensitive
OCI-LY7 cells; [5]
  cell viability (sensitivity of the cells to the compound in combination): highly sensitive
OCI-LY7 cells; [6]
  cell viability (sensitivity of the cells to the compound in combination): highly sensitive
SU-DHL-10 cells [1]
  IC50: 0.089 µM
  cell viability of the combination versus the compound alone (FIG. 2A, 2C): lowered cell viability more than treatment with CC-122 alone
SU-DHL-10 cells [1]; [7]
  cell viability (sensitivity of the cells to the compound in combination): highly sensitive
SU-DHL-10 cells [1]; [8]
  cell viability (sensitivity of the cells to the compound in combination): highly sensitive
SU-DHL-10 cells [1]; [9]
  cell viability (sensitivity of the cells to the compound in combination): highly sensitive
SU-DHL-10 cells [1]; [10]
  cell viability (sensitivity of the cells to the compound in combination): highly sensitive
SU-DHL-10 cells [1]; 5 days
  cell viability, response of the cells to the single agent: refractory

## COc1cc(C)[nH]c(=O)c1CNC(=O)c1c(C)n([C@H](C)C2CCN(CC(F)(F)F)CC2)c2ccccc12 [CPI-1205, lirametostat]
OCI-LY7 cells; [11]
  cell viability (sensitivity of the cells to the compound in combination): highly sensitive; also recorded: lowered cell viability more than treatment with CPI-1205 alone
OCI-LY7 cells; [12]
  cell viability (sensitivity of the cells to the compound in combination): highly sensitive; also recorded: lowered cell viability more than treatment with CPI-1205 alone
OCI-LY7 cells; [13]
  cell viability (sensitivity of the cells to the compound in combination): highly sensitive; also recorded: lowered cell viability more than treatment with CPI-1205 alone
SU-DHL-10 cells [1]; [14]
  cell viability (sensitivity of the cells to the compound in combination): highly sensitive; also recorded: lowered cell viability more than treatment with CPI-1205 alone
SU-DHL-10 cells [1]; [15]
  cell viability (sensitivity of the cells to the compound in combination): highly sensitive; also recorded: lowered cell viability more than treatment with CPI-1205 alone
SU-DHL-10 cells [1]; [16]
  cell viability (sensitivity of the cells to the compound in combination): highly sensitive; also recorded: lowered cell viability more than treatment with CPI-1205 alone

## O=C1CC[C@H](N2C(=O)c3cccc(NCc4ccc(CN5CC(N6CCOCC6)C5)cc4F)c3C2=O)C(=O)N1 [CC-99282, (S)-2-(2,6-dioxopiperidin-3-yl)-4-((2-fluoro-4-((3-morpholinoazetidin-1-yl)methyl)benzyl)amino)isoindoline-1,3-dione]
OCI-LY7 cells; OCI-LY7, in the presence of 100 nM CPI-0209
  cell viability (sensitivity of the cells to the compound in combination): lowered cell viability more than treatment with CC-99282 alone
OCI-LY7 cells; OCI-LY7, in the presence of 100 nM SHR2554
  cell viability (sensitivity of the cells to the compound in combination): lowered cell viability more than treatment with CC-99282 alone
OCI-LY7 cells
  cell viability, response of the cells to the single agent: moderately responsive
SU-DHL-10 cells [1]; 5 days
  cell viability, response of the cells to the single agent: moderately responsive
SU-DHL-10 cells [2]; SU-DHL-10, in the presence of 100 nM CPI-0209
  cell viability (sensitivity of the cells to the compound in combination): lowered cell viability more than treatment with CC-99282 alone
SU-DHL-10 cells [2]; SU-DHL-10, in the presence of 100 nM SHR2554
  cell viability (sensitivity of the cells to the compound in combination): lowered cell viability more than treatment with CC-99282 alone

## O=C1CC[C@H](N2Cc3c(OCc4ccc(CN5CCOCC5)cc4)cccc3C2=O)C(=O)N1 [CC-220, iberdomide]
OCI-LY7 cells
  IC50: 0.03 µM
  cell viability of the combination versus the compound alone (FIG. 2B, 2D): lowered cell viability more than treatment with CC-220 alone
  cell viability, response of the cells to the single agent: modestly responsive
OCI-LY7 cells; [3]
  cell viability (sensitivity of the cells to the compound in combination): highly sensitive
OCI-LY7 cells; [4]
  cell viability (sensitivity of the cells to the compound in combination): highly sensitive
OCI-LY7 cells; [5]
  cell viability (sensitivity of the cells to the compound in combination): highly sensitive
OCI-LY7 cells; [6]
  cell viability (sensitivity of the cells to the compound in combination): highly sensitive
SU-DHL-10 cells [1]
  IC50: 0.0095 µM
  cell viability of the combination versus the compound alone (FIG. 2A, 2C): lowered cell viability more than treatment with CC-220 alone
SU-DHL-10 cells [1]; [7]
  cell viability (sensitivity of the cells to the compound in combination): highly sensitive
SU-DHL-10 cells [1]; [8]
  cell viability (sensitivity of the cells to the compound in combination): highly sensitive
SU-DHL-10 cells [1]; [9]
  cell viability (sensitivity of the cells to the compound in combination): highly sensitive
SU-DHL-10 cells [1]; [10]
  cell viability (sensitivity of the cells to the compound in combination): highly sensitive
SU-DHL-10 cells [1]; 5 days
  cell viability, response of the cells to the single agent: refractory

## COC1CN(C2CCC([C@@]3(C)Oc4c(Cl)cc(C(=O)NCc5c(SC)cc(C)[nH]c5=O)c(C)c4O3)CC2)C1 (stereo partly drawn) [CPI-0209, (2R)-7-chloro-2-(4-(3-methoxyazetidin-1-yl)cyclohexyl)-2,4-dimethyl-N-((6-methyl-4-(methylthio)-2-oxo-1,2-dihydropyridin-3-yl)methyl)benzo[d][1,3]dioxole-5-carboxamide]
OCI-LY7 cells; [17]
  cell viability (sensitivity of the cells to the compound in combination): highly sensitive; also recorded: lowered cell viability more than treatment with CPI-0209 alone
OCI-LY7 cells; [18]
  cell viability (sensitivity of the cells to the compound in combination): highly sensitive; also recorded: lowered cell viability more than treatment with CPI-0209 alone
OCI-LY7 cells
  cell viability, response of the cells to the single agent: modestly responsive
SU-DHL-10 cells [1]; [19]
  cell viability (sensitivity of the cells to the compound in combination): highly sensitive; also recorded: lowered cell viability more than treatment with CPI-0209 alone
SU-DHL-10 cells [1]; [20]
  cell viability (sensitivity of the cells to the compound in combination): highly sensitive; also recorded: lowered cell viability more than treatment with CPI-0209 alone
SU-DHL-10 cells [1]; 5 days
  cell viability, response of the cells to the single agent: moderately responsive

## CCc1c(N(CC)C2CCOCC2)cc2oc(CN3CCCCC3)cc2c1C(=O)NCc1c(C)cc(C)[nH]c1=O [SHR2554, N-((4,6-dimethyl-2-oxo-1,2-dihydropyridin-3-yl)methyl)-5-ethyl-6-(ethyl(tetrahydro-2H-pyran-4-yl)amino)-2-(piperidin-1-ylmethyl)benzofuran-4-carboxamide]
OCI-LY7 cells; [17]
  cell viability (sensitivity of the cells to the compound in combination): highly sensitive; also recorded: lowered cell viability more than treatment with SHR2554 alone
OCI-LY7 cells; [18]
  cell viability (sensitivity of the cells to the compound in combination): highly sensitive; also recorded: lowered cell viability more than treatment with SHR2554 alone
OCI-LY7 cells
  cell viability, response of the cells to the single agent: refractory
SU-DHL-10 cells [1]; [19]
  cell viability (sensitivity of the cells to the compound in combination): highly sensitive; also recorded: lowered cell viability more than treatment with SHR2554 alone
SU-DHL-10 cells [1]; [20]
  cell viability (sensitivity of the cells to the compound in combination): highly sensitive; also recorded: lowered cell viability more than treatment with SHR2554 alone
SU-DHL-10 cells [1]; 5 days
  cell viability, response of the cells to the single agent: modestly responsive

## CC[C@H](C)n1cc(C)c2c(C(=O)NCc3c(C)cc(C)[nH]c3=O)cc(-c3ccc(N4CCNCC4)nc3)cc21 [GSK126, (S)-1-(sec-butyl)-N-((4,6-dimethyl-2-oxo-1,2-dihydropyridin-3-yl)methyl)-3-methyl-6-(6-(piperazin-1-yl)pyridin-3-yl)-1H-indole-4-carboxamide]
OCI-LY7 cells; [11]
  cell viability (sensitivity of the cells to the compound in combination): highly sensitive; also recorded: lowered cell viability more than treatment with GSK126 alone
OCI-LY7 cells; [12]
  cell viability (sensitivity of the cells to the compound in combination): highly sensitive; also recorded: lowered cell viability more than treatment with GSK126 alone
OCI-LY7 cells; [13]
  cell viability (sensitivity of the cells to the compound in combination): highly sensitive; also recorded: lowered cell viability more than treatment with GSK126 alone
SU-DHL-10 cells [1]; [14]
  cell viability (sensitivity of the cells to the compound in combination): highly sensitive; also recorded: lowered cell viability more than treatment with GSK126 alone
SU-DHL-10 cells [1]; [15]
  cell viability (sensitivity of the cells to the compound in combination): highly sensitive; also recorded: lowered cell viability more than treatment with GSK126 alone
SU-DHL-10 cells [1]; [16]
  cell viability (sensitivity of the cells to the compound in combination): highly sensitive; also recorded: lowered cell viability more than treatment with GSK126 alone
